# From patent US11641857B2, “Unusually potent ABA receptor pan-antagonists” (The Regents of the University of California, priority 2019, dated 2023)
# “Also recorded” adds a separate entry of the source.
# Key:
# [1] = tested on: ABA receptors (PYR1, PYL4, PYL8); assay: ABA receptor antagonism in vitro, statements not resolved by receptor (PYR1, PYL4, PYL8 panel); format: biochemical, Arabidopsis
# Experimental: (§1) Prior to synthesizing a library of OP-4-triazoles we conducted model click reactions to establish the feasibility and efficiency of using unpurified reaction mixtures directly in ABA receptor activation assays. These reactions were performed using OPZ and 4-ethynyltoluene as follows: we mixed OPZ (4 uL, 25 mM), alkyne (10 uL, 10 mM), sodium ascorbate (2 uL, 20 mM), BTTA (2 uL, 20 mM) and copper(II) sulphate (2 uL, 10 mM) in a 200 μL PCR tube and incubated the reaction at 37° C. for 48 hr. The reaction was monitored using TLC. In parallel, we ran a scaled-up synthesis of the triazole using similar ratios of the reagents and conditions, followed by precipitation of the product by the addition of 2N HCl and subsequent filtration to yield triazole T1 from 4-ethynyltoluene as white powder in quantitative yields. The purified triazole and unpurified click reaction were both tested in receptor-mediated phosphatase inhibition assays. […] Reactions were mixed and equilibrated for 20 minutes, substrate (4-methylumbelliferyl phosphate, 1 mM final) was added, and fluorescence data were collected (λ, exc=360 nm, λ emm=460 nm) using a Tecan Infinite F200 Pro fluorimeter. PP2C activity was calculated relative to solvent-only control wells (i.e. receptors and PP2C in assay buffer, but no test compound); compounds were tested in duplicate. […]
# Arabidopsis (Col) seeds = assay: Arabidopsis seed germination/greening assay in presence of ABA; format: in vivo; settings: for blocking of ABA inhibition of cotyledon greening: 30 μM pure compound
# Experimental: To evaluate and prioritize the 204 hits obtained, we examined their effects on ABA-mediated inhibition of Arabidopsis seed germination and seedling growth. Arabidopsis seeds germinate and produce photosynthetically active cotyledons within 4-days post imbibition under illumination. Low concentrations of ABA (i.e. 1 μM) inhibit both germination and seedling growth, which is easily quantified by image analysis of green pixel counts. This provides a simple test for ABA antagonists, as they will block the inhibitory effects of ABA on greening. We used this assay to characterize the 204 hit molecules. Greening experiments were performed in 96-well polystyrene petri plates using surface sterilized Arabidopsis (Col) seeds plated on to 0.7% agar medium containing ½-X MS salts, 0.5% sucrose, 1 μM ABA, and one of the 204 click reactions products (˜10 μM). After 4 days of stratification (4° C.), the plates were transferred to a growth chamber under continuous illumination and photographed 4 days later. Each experiment included ABA (1 μM ABA, no antagonist) and mock (no ABA) controls.
# The OP-4-triazoles 48E9T, 49C10T, 49 Å2T, 1H6T and 6E4T were tested in Arabidopsis greening assays at 30 μM in presence or absence of 1 μM ABA using conditions described in Example 7. […] (FIG. 7).
# Purified triazoles were evaluated for their ability to block the effects of exogenous ABA in inhibiting seed germination/greening, performed as described in Example 7 using the purified OP-4-peptidotriazole hits, PanMe, AA1, and OPZ at concentrations ranging from 200 nM to 50000 nM in triplicate in presence of 1 μM ABA. Seed germination was scored at the lowest concentration tested, while greening data (normalized to mock control) was fitted to log(inhibitor) vs. response-(variable slope) model using non-linear regression to infer the EC50S, using GraphPad Prism 6.0.
# Arabidopsis seeds = assay: Thermoinhibition of seed germination assay; format: in vivo; settings: 0.2 μM to 50 μM, 37° C. in dark for 72 hrs
# Text: Adverse environmental conditions during germination can affect dormancy in several species. For example, high temperatures during seed imbibition can prevent seed germination and induce a form of secondary seed dormancy in a process called thermoinhibition. Although thermoinhibtion is complex, elevated ABA levels induced by heat play a critical role, as evidenced by both the identification of ABA-deficient varieties of lettuce with reduced sensitivity to thermoinhibition and pharmacological experiments using fluridone, which disrupts ABA biosynthesis and thermoinhibition in many species. Chemicals that can counter this effect of heat stress could find use as seed treatments to ensure consistent germination under adverse conditions. […] 96 well polystyrene petri plates with surface sterilized Arabidopsis seeds plated on 0.7% agar medium containing ½-x MS salts, 0.5% sucrose, and doses spanning from 0.2 μM to 50 μM of different OP-4-peptidotriazoles, PanMe, AA1, OPZ and fluridone as a positive control. After 4 d of stratification at 4° C., the plates were transferred to an incubation chamber at 37° C. in dark for 72 hrs. After heat treatment, the plates were placed in dark in an incubation chamber at RT for 48 hrs and photographed.
# ABA receptors = settings: cited from earlier work
# PYR1 = target: T1, PYR1 (Arabidopsis thaliana, UniProt O49686); assay: ABA/receptor-mediated PP2C (ΔN-HAB1) phosphatase inhibition assay, PYR1; format: biochemical; settings: 100 nM PYR1, 25 nM ΔN-HAB1, 50 μM test compound, presence or absence of 5 μM ABA
# T1 construct: made in house
# T1 sequence (O49686 1-191): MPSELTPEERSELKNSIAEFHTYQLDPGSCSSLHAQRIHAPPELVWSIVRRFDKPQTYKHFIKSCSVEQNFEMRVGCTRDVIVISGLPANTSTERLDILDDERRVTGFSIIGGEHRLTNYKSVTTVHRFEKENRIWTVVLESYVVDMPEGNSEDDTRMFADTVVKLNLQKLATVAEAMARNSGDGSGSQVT
# Experimental: as §1
# [2] = Light sensitivity of the isolated product; format: physicochemical; settings: isolated solid, stored at −20° C.
# Experimental: 142-(4-Azido-3,5-dicyclopropylphenyl)acetylaminolcyclohexanecarboxylic acid (2b; OPZ) To a solution of 2a (0.4 g, 1.01 mmoles, 1 equiv) in methanol/water 20 mL (1:1 v/v) was added lithium hydroxide (0.48 g, 20.2 mmoles, 20 equiv) and stirred at RT for 24 hr. After completion of the reaction (TLC), 2N HCl was added to the reaction mixture to precipitate the product as a white solid in near quantitative yields.
# Arabidopsis seedlings = assay: Primary root growth assay in presence of ABA; format: in vivo; settings: 5 and 10 μM, 10 μM ABA, 72 hrs
# Experimental: Purified triazoles were evaluated for their ability to block effects of exogenous ABA in inhibiting primary root growth in Arabidopsis seedlings. Arabidopsis seeds were surface sterilized and plated on 0.7% agar medium containing 1⁄2-x MS salts, 0.5% sucrose. After 4 d of stratification at 4° C., transferred to dark chamber for 48 hrs. 5-6 seedlings at this stage were transferred to chemical plates containing purified triazole hits, PanMe, AA1 and OPZ at 5 and 10 μM in triplicate in presence of 10 μM ABA. Additional ABA controls (10 μM ABA, no antagonist) were also performed to assess effects of ABA on growth in absence of antagonist and transferred to dark chamber at RT for 72 hrs. Root lengths were measured and normalized to mock controls (FIG. 13).
# MAPKKK18 gene expression = assay: MAPKKK18::Luc luciferase reporter assay of ABA induced gene expression; format: in vivo, Arabidopsis thaliana; settings: 25 μM test chemical, 25 μM ABA, 6 hr
# Experimental: ASV1E9T, PanMe, AA1 and OPZ were evaluated for their ability to block effects of exogenous ABA in inducing MAPKKK18 gene expression in Arabidopsis seedlings. Arabidopsis seeds (MAPKKKI8::Luc reporter line) were surface sterilized grown and plant growth liquid medium (½ Murashige and Skoog medium and 0.5% Sucrose) under 16 hour light and 8 hour dark conditions. 10 day old seedlings were transferred to new plant growth liquid medium with test chemical at 25 μM in presence of equimolar concentration of ABA and 100 μM luciferin. Luciferase assay image were taken by XYZ camera after 6 hr of treatments. The average luminescent intensity was quantified using ImageJ. Average intensity was calculated for quadruplicates and the error bars on graphs represent the standard error of mean. […] (FIG. 14)
molecule,measurement,setting,value
O=C(Cc1cc(C2CC2)c(-n2cc(Cn3c(=O)oc4cc(Cl)ccc43)nn2)c(C2CC2)c1)NC1(C(=O)O)CCCCC1 [1H6T],receptor selectivity (pan vs selective antagonist),[1],pan antagonist
same,phytotoxicity,Arabidopsis (Col) seeds; 30 μM,possible phytotoxicity
same,blocking of ABA inhibition of cotyledon greening,Arabidopsis (Col) seeds; 1 μM ABA,weakly active
COc1ccc(-c2nc3ccccc3n2Cc2cn(-c3c(C4CC4)cc(CC(=O)NC4(C(=O)O)CCCCC4)cc3C3CC3)nn2)cc1 [6E4T],receptor selectivity (pan vs selective antagonist),[1],PYR1-selective antagonist
same,blocking of ABA inhibition of cotyledon greening,Arabidopsis (Col) seeds; 1 μM ABA,only weakly effective
O=C(Cc1cc(C2CC2)c(-n2cc(CNC(=O)c3cnc4ccccc4n3)nn2)c(C2CC2)c1)NC1(C(=O)O)CCCCC1 [48E9T],blocking of ABA inhibition of cotyledon greening,Arabidopsis (Col) seeds; 1 μM ABA,highly effective in blocking the effects of ABA
O=C(Cc1cc(C2CC2)c(-n2cc(CNC(=O)c3coc(Br)c3)nn2)c(C2CC2)c1)NC1CCC(C(=O)O)CC1 (stereo not shown) [49 Å2T],blocking of ABA inhibition of cotyledon greening,Arabidopsis (Col) seeds; 1 μM ABA,highly effective in blocking the effects of ABA
same,block of thermoinhibition of germination,Arabidopsis seeds,block thermoinhibition
Cc1cccc(C(=O)NCc2cn(-c3c(C4CC4)cc(CC(=O)NC4(C(=O)O)CCCCC4)cc3C3CC3)nn2)n1 [49C10T],blocking of ABA inhibition of cotyledon greening,Arabidopsis (Col) seeds; 1 μM ABA,highly effective in blocking the effects of ABA
CCCCCCSC1=C(C)[C@](O)(/C=C/C(C)=C\C(=O)O)C(C)(C)CC1=O [AS6],in vitro activity (literature antagonists),ABA receptors,modest in vitro activity
"[N-]=[N+]=Nc1c(C2CC2)cc(CC(=O)NC2CCC(C(=O)O)CC2)cc1C1CC1 (stereo not shown) [OPZ, 142-(4-Azido-3,5-dicyclopropylphenyl)acetylaminolcyclohexanecarboxylic acid]",effect on PYR1 in PP2C activity assay,PYR1,weak partial PYR1 agonist/antagonist
same,light sensitivity,[2],extremely light sensitive
CC1=C[C@@H](OCC#Cc2ccc(C)cc2)CC(C)(C)[C@@]1(O)/C=C/C(C)=C\C(=O)O [PanMe],phytotoxicity,Arabidopsis (Col) seeds; 200 nM to 50000 nM dose range,phytotoxicity; also recorded: phytotoxic at higher concentrations
same,blocking of ABA inhibition of seed germination/greening,"Arabidopsis (Col) seeds; 200 nM to 50000 nM, 1 μM ABA, triplicate",blocks ABA's effects at lower concentrations
same,block of thermoinhibition of germination,Arabidopsis seeds,blocks thermoinhibition but its effects decreased at higher concentrations
same,block of ABA inhibition of primary root growth,Arabidopsis seedlings,weak effects
same,block of ABA induced MAPKKK18::Luc gene expression,MAPKKK18 gene expression,less effective
same,in vitro activity (literature antagonists),ABA receptors,modest in vitro activity
fluridone,block of thermoinhibition of germination,Arabidopsis seeds,blocks thermoinhibition at all concentrations tested
